≈ marks a conversion by molar mass, not a printed value.
Key:
Beta-lactamase = Beta-lactamase (Escherichia coli K-12, UniProt P00811); assay: Inhibitory activity against AmpC (class C) beta-lactamase
Beta-lactamase TEM = Beta-lactamase TEM (Escherichia coli, UniProt P62593); assay: Inhibitory activity against TEM-1 (class A) beta-lactamase
Mus musculus [1] = assay: In vivo inhibitory activity against Serratia marcescens in mice; assay type: functional
Serratia marcescens = assay: In vitro inhibitory activity against Serratia marcescens; assay type: functional
Escherichia coli = assay: In vitro inhibitory activity against Escherichia coli; assay type: functional
Mus musculus [2] = assay: In vivo inhibitory activity against Escherichia coli in mice; assay type: functional

Beta-lactamase, sequence (P00811 whole entry): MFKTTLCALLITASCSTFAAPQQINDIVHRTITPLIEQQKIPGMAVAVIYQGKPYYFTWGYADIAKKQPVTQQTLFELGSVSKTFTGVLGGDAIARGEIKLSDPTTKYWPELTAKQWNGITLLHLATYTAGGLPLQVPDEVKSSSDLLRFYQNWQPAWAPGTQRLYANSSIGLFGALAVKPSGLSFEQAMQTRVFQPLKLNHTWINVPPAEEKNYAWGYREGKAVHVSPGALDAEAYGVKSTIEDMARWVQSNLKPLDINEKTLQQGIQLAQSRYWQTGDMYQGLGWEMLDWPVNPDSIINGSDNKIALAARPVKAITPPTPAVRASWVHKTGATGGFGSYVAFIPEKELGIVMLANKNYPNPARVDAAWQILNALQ
Beta-lactamase TEM, sequence (P62593 whole entry): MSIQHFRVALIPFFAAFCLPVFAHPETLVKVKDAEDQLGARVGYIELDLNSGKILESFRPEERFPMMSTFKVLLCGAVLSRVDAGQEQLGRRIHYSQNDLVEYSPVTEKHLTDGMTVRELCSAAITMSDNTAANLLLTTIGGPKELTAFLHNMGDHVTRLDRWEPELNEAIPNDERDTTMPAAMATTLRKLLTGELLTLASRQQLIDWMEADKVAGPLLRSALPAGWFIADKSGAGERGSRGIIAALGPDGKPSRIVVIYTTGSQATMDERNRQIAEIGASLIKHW

| SMILES | IC50 (Beta-lactamase) [nM] | IC50 (Beta-lactamase TEM) [µM] | ED50 (Mus musculus [1]) [mg/kg] | MIC (Serratia marcescens) [µg/mL] | MIC (Escherichia coli) [µg/mL] | ED50 (Mus musculus [2]) [mg/kg] |
| --- | --- | --- | --- | --- | --- | --- |
| C[C@H](O)[C@H]1C(=O)N2[C@@H](C(=O)O)C(C)(C)S(=O)(=O)[C@H]12 | 1600 | > 334 | – | – | – | – |
| C[C@@H](O)[C@H]1C(=O)N2[C@@H](C(=O)O)C(C)(C)S(=O)(=O)[C@H]12 | 10200 | 47.9 | – | – | – | – |
| CC(C)[C@H](NC[C@H]1OCC[C@H]1SC1=C(C(=O)O)N2C(=O)[C@H]([C@@H](C)O)C2[C@H]1C)C(=O)O (stereo partly drawn) | 68 | 0.091 | – | – | – | – |
| C[C@@H](O)[C@H]1C(=O)N2C(C(=O)O)=C(S[C@@H]3CCO[C@@H]3CN)[C@H](C)[C@H]12 | 180 | 0.035 | – | – | – | – |
| CC1(C)[C@H](C(=O)O)N2C(=O)[C@H](CO)[C@H]2S1(=O)=O | 5800 | – | – | – | – | – |
| CC1(C)[C@H](C(=O)O)N2C(=O)[C@@H](CO)[C@H]2S1(=O)=O | 1160 | – | 30 | 8 (≈ 30.4 µM) | 4 (≈ 15.2 µM) | 8 |
| C[C@H](O)[C@@H]1C(=O)N2[C@@H](C(=O)O)C(C)(C)S(=O)(=O)[C@H]12 | 120 | 204 | – | – | – | – |
| CCN1CCN(C(=O)N[C@@H](C(=O)N[C@@H]2C(=O)N3[C@@H]2SC(C)(C)[C@@H]3C(=O)O)c2ccccc2)C(=O)C1=O [PIPERACILLIN] | – | – | 128 | 32 (≈ 61.8 µM) | > 64 | 256 |
| C[C@]1(Cn2ccnn2)[C@H](C(=O)[O-])N2C(=O)C[C@H]2S1(=O)=O.[Na+] [TAZOBACTAM SODIUM] | – | – | 144 | 32 | 2 | 7.7 |
| CC1(C)S[C@@H]2[C@H](CO)C(=O)N2[C@H]1C(=O)O | 65900 | 31 | – | – | – | – |
| CC1(C)S[C@@H]2[C@@H](CO)C(=O)N2[C@H]1C(=O)O | 220000 | 59 | – | – | – | – |

From ChEMBL document CHEMBL1131671, “6-(1-Hydroxyalkyl)penam sulfone derivatives as inhibitors of class A and class C beta-lactamases I” (Bioorg Med Chem Lett, 1999)
